Laboratory results published in US12371454B2, “Cyclic peptide compound having Kras inhibitory action” (priority 2019, dated 2025).
Starred links: 1 amine or outer side, 2 acyl side, 3 side chain; linkers in the order of their positions; H or OH if unused. Positions of bridges follow the written chain, without caps; N, C: chain ends. Non-standard residues stand in square brackets, D forms with d. Residues, ends and D or L forms follow the SMILES beside them. *: point of attachment. hPhe(3,5-F2-4-CF3) = N[C@@H](CCc1cc(F)c(C(F)(F)F)c(F)c1)C(=O)O; hPhe(3-Cl-4-CF3) = N[C@@H](CCc1ccc(C(F)(F)F)c(Cl)c1)C(=O)O; hPhe(3-F,4-CF3) = N[C@@H](CCc1ccc(C(F)(F)F)c(F)c1)C(=O)O; NMePhe(4-CF3) = CN[C@@H](Cc1ccc(C(F)(F)F)cc1)C(=O)O; Pro(trans-4-Ph) = O=C(O)[C@@H]1C[C@@H](c2ccccc2)CN1; 3Oxa8azabicyclo(3.2.1)octane = C1CC2COCC1N2*; NMeAbu(4,4,4-F3) = CN[C@@H](CC(F)(F)F)C(=O)O; NMePhe(4-Cl) = CN[C@@H](Cc1ccc(Cl)cc1)C(=O)O; NMePhe(4-Me) = CN[C@@H](Cc1ccc(C)cc1)C(=O)O; NMePhe(2-Cl) = CN[C@@H](Cc1ccccc1Cl)C(=O)O; NMePhe(4-I) = CN[C@@H](Cc1ccc(I)cc1)C(=O)O; NMedβ3hAla = C[C@H](CC(=O)[*:2])N(C)[*:1]; NMeAla(cPent) = CN[C@@H](CC1CCCC1)C(=O)O; NMeGly(cPent) = CN[C@H](C(=O)O)C1CCCC1; Phe(3-I) = N[C@@H](Cc1cccc(I)c1)C(=O)O; NMeGly(cBu) = CN[C@H](C(=O)O)C1CCC1; NMeCha = CN[C@@H](CC1CCCCC1)C(=O)O; NEtLeu = CCN[C@@H](CC(C)C)C(=O)O; NMeChg = CN[C@H](C(=O)O)C1CCCCC1; NMeI = CC[C@H](C)[C@H](NC)C(=O)O; Gly(cBu) = N[C@H](C(=O)O)C1CCC1; NMeD = CN[C@@H](CC(=O)O)C(=O)O; NMeHpra = C#CCC[C@H](NC)C(=O)O; AllylGly = C=CC[C@H](N)C(=O)O; NMeL = CN[C@@H](CC(C)C)C(=O)O; NPrAla = CCCN[C@@H](C)C(=O)O; NMeV = CN[C@H](C(=O)O)C(C)C; d(β3hA) = C[C@@H](N)CC(=O)O; NMeS = CN[C@@H](CO)C(=O)O; NMeA = CN[C@@H](C)C(=O)O; Nle = CCCC[C@H](N)C(=O)O; Piperidide = C1CCN(*)CC1; Pyrrolidide = C1CCN(*)C1; Ac5c = NC1(C(=O)O)CCCC1; Aze = O=C(O)[C@@H]1CCN1; Aib = CC(C)(N)C(=O)O; Sar = CNCC(=O)O; Propyl = CCC*

What was measured:
[1] = molecular target: T1, Kras and SOS1 (biotin-tagged human Kras loaded with GDP, His-tagged human SOS1) (Homo sapiens, UniProt P01116, G12D); experiment: Protein-protein interaction inhibition between Kras and SOS1 (KrasGl2D-SOS PPI) using AlphaScreen; format: binding; conditions: AlphaScreen; biotin-tagged human Kras loaded with GDP, His-tagged human SOS1; read-out: KRAS G12D-SOS PPI IC50
T1 construct: made in house; host or cells: E. coli (stated for Kras only)
Procedure, shortened: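 Kras was produced in E. coli, purified, then loaded with GDP. It was paired via streptavidin acceptor beads with His-SOS1 held on nickel donor beads, and proximity signal at 520-620 nm was read after 680 nm illumination.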

[2] = system: Human pancreatic cancer cell line AsPC-1; experiment: Measurement of AsPC-1 cell growth inhibition (AsPC-1 CGI); format: cell-based; conditions: 96 h
Procedure, shortened: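 AsPC-1 cells in 15% FBS RPMI-1640 were exposed to test compound for 96 hours at 37° C, with CellTiter-Glo as endpoint.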

T1 sequence (P01116 1-188 isoform P01116-2 G12D): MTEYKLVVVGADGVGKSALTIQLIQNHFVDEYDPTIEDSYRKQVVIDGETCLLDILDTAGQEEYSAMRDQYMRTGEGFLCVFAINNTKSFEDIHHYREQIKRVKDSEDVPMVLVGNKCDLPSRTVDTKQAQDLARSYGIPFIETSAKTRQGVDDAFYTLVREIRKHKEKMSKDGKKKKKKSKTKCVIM

Row | SMILES | IC50 [1] [nM] | IC50 [2] [nM]
1 | C#CCC[C@H]1C(=O)N[C@@H]([C@@H](C)CC)C(=O)N(C)CC(=O)N(C)CC(=O)N(C)[C@@H](Cc2ccc(I)cc2)C(=O)N(C)CC(=O)N[C@@H](CCc2ccc(C(F)(F)F)c(Cl)c2)C(=O)N2CCC[C@H]2C(=O)NC2(CCCC2)C(=O)N(C)[C@@H](C2CCCCC2)C(=O)N(C)[C@H](C)CC(=O)N1C [Compound 110] (cyclo([Ac5c][NMeChg][NMedβ3hAla][NMeHpra]I[Sar][Sar][NMePhe(4-I)][Sar][hPhe(3-Cl-4-CF3)]P)) | 3.8 | 100 to 500
2 | CC[C@H](C)[C@@H]1NC(=O)[C@H](CC(C)C)N(C)C(=O)C[C@@H](C)NC(=O)[C@H](CC(C)C)N(C)C(=O)C(C)(C)NC(=O)[C@H](CC(C)C)N(C)C(=O)[C@H](CCc2cc(F)c(C(F)(F)F)c(F)c2)NC(=O)CN(C)C(=O)[C@H](CC2CCCCC2)N(C)C(=O)CN(C)C(=O)CN(C)C1=O [Compound 119] (cyclo([Aib][NMeL][d(β3hA)][NMeL]I[Sar][Sar][NMeCha][Sar][hPhe(3,5-F2-4-CF3)][NMeL])) | 39 | 100 to 500
3 | CC[C@H](C)[C@@H]1NC(=O)[C@H](CC(C)C)N(C)C(=O)C[C@@H](C)NC(=O)[C@H](C(C)C)N(C)C(=O)C2(CCCC2)NC(=O)[C@@H]2CCCN2C(=O)[C@H](CCc2ccc(C(F)(F)F)c(Cl)c2)NC(=O)CN(C)C(=O)[C@H](Cc2ccc(Cl)cc2)N(C)C(=O)CN(C)C(=O)CN(C)C1=O [Compound 121] (cyclo([Ac5c][NMeV][d(β3hA)][NMeL]I[Sar][Sar][NMePhe(4-Cl)][Sar][hPhe(3-Cl-4-CF3)]P)) | 5.4 | 100 to 500
4 | CC[C@H](C)[C@@H]1NC(=O)[C@H](CC(C)C)N(C)C(=O)C[C@@H](C)NC(=O)[C@H](C2CCCC2)N(C)C(=O)C2(CCCC2)NC(=O)[C@@H]2CCCN2C(=O)[C@H](CCc2ccc(C(F)(F)F)c(Cl)c2)NC(=O)CN(C)C(=O)[C@H](CC2CCCCC2)N(C)C(=O)CN(C)C(=O)CN(C)C1=O [Compound 122] (cyclo([Ac5c][NMeGly(cPent)][d(β3hA)][NMeL]I[Sar][Sar][NMeCha][Sar][hPhe(3-Cl-4-CF3)]P)) | 8.6 | 100 to 500
5 | CCCOC[C@H]1C(=O)N(C)CC(=O)N[C@@H](CCc2ccc(C(F)(F)F)c(Cl)c2)C(=O)N2CCC[C@H]2C(=O)NC2(CCCC2)C(=O)N(C)[C@@H](C2CCCCC2)C(=O)N(C)[C@H](C(=O)N2CCCC2)CC(=O)N(C)[C@@H](C2CCC2)C(=O)N[C@@H]([C@@H](C)CC)C(=O)N(C)CC(=O)N(C)CC(=O)N1C [Compound 126] ([NMeGly(cBu)]I[Sar][Sar][NMeS](Propyl)[Sar][hPhe(3-Cl-4-CF3)]P[Ac5c][NMeChg][NMeD]-Pyrrolidide; lactam N-11) | 0.5 | 50 to 100
6 | CCCN1C(=O)C[C@@H](C(=O)N2CCCCC2)N(C)C(=O)[C@H](C(C)C)N(C)C(=O)C2(CCCC2)NC(=O)[C@@H]2CCCN2C(=O)[C@H](CCc2ccc(C(F)(F)F)c(Cl)c2)NC(=O)CN(C)C(=O)[C@H](CC2CCCCC2)N(C)C(=O)CN(C)C(=O)CN(C)C(=O)[C@H]([C@@H](C)CC)NC(=O)[C@@H]1C [Compound 131] ([NPrAla]I[Sar][Sar][NMeCha][Sar][hPhe(3-Cl-4-CF3)]P[Ac5c][NMeV][NMeD]-Piperidide; lactam N-11) | 3.3 | 100 to 500
7 | CC[C@H](C)[C@@H]1NC(=O)[C@H](CC(C)C)N(CC)C(=O)C[C@@H](C(=O)N2CCCCC2)N(C)C(=O)[C@H](C2CCCCC2)N(C)C(=O)C2(CCCC2)NC(=O)[C@@H]2CCCN2C(=O)[C@H](CCc2ccc(C(F)(F)F)c(Cl)c2)NC(=O)CN(C)C(=O)[C@H](CC2CCCCC2)N(C)C(=O)CN(C)C(=O)CN(C)C1=O [Compound 137] ([NEtLeu]I[Sar][Sar][NMeCha][Sar][hPhe(3-Cl-4-CF3)]P[Ac5c][NMeChg][NMeD]-Piperidide; lactam N-11) | 0.76 | 50 to 100
8 | CCCOC[C@H]1C(=O)N(C)CC(=O)N[C@@H](CCc2ccc(C(F)(F)F)c(Cl)c2)C(=O)N2CCC[C@H]2C(=O)NC2(CCCC2)C(=O)N(C)[C@@H](C2CCCCC2)C(=O)N(C)[C@H](C(=O)N2C3CCC2COC3)CC(=O)N(C)[C@@H](C2CCC2)C(=O)N[C@@H]([C@@H](C)CC)C(=O)N(C)CC(=O)N(C)CC(=O)N1C [Compound 140] ([NMeGly(cBu)]I[Sar][Sar][NMeS](Propyl)[Sar][hPhe(3-Cl-4-CF3)]P[Ac5c][NMeChg][NMeD]-{3Oxa8azabicyclo(3.2.1)octane}; lactam N-11) | 0.81 | 100 to 500
9 | CC[C@H](C)[C@@H]1NC(=O)[C@H](CC(C)C)N(C)C(=O)C[C@@H](C(=O)N2CCCCC2)N(C)C(=O)[C@H](C2CCCCC2)N(C)C(=O)C2(CCCC2)NC(=O)[C@@H]2C[C@@H](c3ccccc3)CN2C(=O)[C@H](CCc2ccc(C(F)(F)F)c(Cl)c2)NC(=O)CN(C)C(=O)[C@H](CC2CCCCC2)N(C)C(=O)[C@@H]2CCN2C(=O)CN(C)C1=O [Compound 147] ([NMeL]I[Sar][Aze][NMeCha][Sar][hPhe(3-Cl-4-CF3)][Pro(trans-4-Ph)][Ac5c][NMeChg][NMeD]-Piperidide; lactam N-11) | 6.7 | 100 to 500
10 | C=CC[C@@H]1NC(=O)[C@H](CC(C)C)N(C)C(=O)C[C@@H](C(=O)N2CCCCC2)N(C)C(=O)[C@H](C2CCCCC2)N(C)C(=O)C2(CCCC2)NC(=O)[C@@H]2CCCN2C(=O)[C@H](CCc2ccc(C(F)(F)F)c(Cl)c2)NC(=O)CN(C)C(=O)[C@H](CC2CCCCC2)N(C)C(=O)CN(C)C(=O)CN(C)C1=O [Compound 164] ([NMeL][AllylGly][Sar][Sar][NMeCha][Sar][hPhe(3-Cl-4-CF3)]P[Ac5c][NMeChg][NMeD]-Piperidide; lactam N-11) | 2.2 | 100 to 500
11 | CCCC[C@@H]1NC(=O)[C@H](Cc2cccc(I)c2)NC(=O)CN(C)C(=O)[C@H](Cc2ccc(Cl)cc2)N(C)C(=O)CN(C)C(=O)CN(C)C(=O)[C@H]([C@@H](C)CC)NC(=O)[C@H](CC(C)C)N(C)C(=O)C[C@@H](C(=O)N2CCCCC2)N(C)C(=O)[C@H](CC(C)C)NC(=O)[C@H](Cc2ccccc2Cl)N(C)C1=O [Compound 168] ([NMeL]I[Sar][Sar][NMePhe(4-Cl)][Sar][Phe(3-I)][Nle][NMePhe(2-Cl)]L[NMeD]-Piperidide; lactam N-11) | 29 | 100 to 500
12 | CC[C@H](C)[C@@H]1NC(=O)[C@H](CC(F)(F)F)N(C)C(=O)C[C@@H](C(=O)N2C3CCC2COC3)N(C)C(=O)[C@H](C2CCCCC2)N(C)C(=O)C2(CCCC2)NC(=O)[C@@H]2CCCN2C(=O)[C@H](CCc2ccc(C(F)(F)F)c(Cl)c2)NC(=O)CN(C)C(=O)[C@H](Cc2ccc(C(F)(F)F)cc2)N(C)C(=O)CN(C)C(=O)CN(C)C1=O [Compound 173] ([NMeAbu(4,4,4-F3)]I[Sar][Sar][NMePhe(4-CF3)][Sar][hPhe(3-Cl-4-CF3)]P[Ac5c][NMeChg][NMeD]-{3Oxa8azabicyclo(3.2.1)octane}; lactam N-11) | 0.56 | 20 to 50
13 | CC[C@H](C)[C@@H]1NC(=O)[C@H](CC(C)C)N(C)C(=O)C[C@@H](C)NC(=O)[C@H](C(C)C)N(C)C(=O)C2(CCCC2)NC(=O)[C@@H]2CCCN2C(=O)[C@H](CCc2ccc(C(F)(F)F)c(F)c2)NC(=O)CN(C)C(=O)[C@H](CC2CCCCC2)N(C)C(=O)[C@@H]2CCN2C(=O)CN(C)C1=O [Compound 211] (cyclo([Ac5c][NMeV][d(β3hA)][NMeL]I[Sar][Aze][NMeCha][Sar][hPhe(3-F,4-CF3)]P)) | 43 | 100 to 500
14 | CC[C@H](C)[C@@H]1NC(=O)[C@H](CC(C)C)N(C)C(=O)C[C@@H](C(=O)N(C)C)N(C)C(=O)[C@H]([C@@H](C)CC)N(C)C(=O)C2(CCCC2)NC(=O)[C@H](Cc2ccccc2Cl)N(C)C(=O)[C@H](CCc2ccc(C(F)(F)F)c(Cl)c2)NC(=O)CN(C)C(=O)[C@H](Cc2ccc(C)cc2)N(C)C(=O)[C@@H]2CCN2C(=O)[C@H](C)N(C)C1=O [Compound 216] ([NMeL]I[NMeA][Aze][NMePhe(4-Me)][Sar][hPhe(3-Cl-4-CF3)][NMePhe(2-Cl)][Ac5c][NMeI][NMeD]-NMe2; lactam N-11) | 8 | 100 to 500
15 | CC[C@H](C)[C@@H]1NC(=O)[C@H](CC(C)C)N(C)C(=O)C[C@@H](C(=O)N2CCCCC2)N(C)C(=O)[C@H](C(C)C)N(C)C(=O)C2(CCCC2)NC(=O)[C@@H]2CCCN2C(=O)[C@H](CCc2ccc(C(F)(F)F)c(Cl)c2)NC(=O)CN(C)C(=O)[C@H](CC2CCCC2)N(C)C(=O)CN(C)C(=O)CN(C)C1=O [Compound 220] ([NMeL]I[Sar][Sar][NMeAla(cPent)][Sar][hPhe(3-Cl-4-CF3)]P[Ac5c][NMeV][NMeD]-Piperidide; lactam N-11) | 3.1 | 100 to 500
16 | CC(C)C[C@H]1C(=O)N[C@@H](C2CCC2)C(=O)N(C)CC(=O)N(C)CC(=O)N(C)[C@@H](CC2CCCCC2)C(=O)N(C)CC(=O)N[C@@H](CCc2ccc(C(F)(F)F)c(Cl)c2)C(=O)N2CCC[C@H]2C(=O)NC2(CCCC2)C(=O)N(C)[C@@H](C(C)C)C(=O)N(C)[C@H](C(=O)N2CCCCC2)CC(=O)N1C [Compound 221] ([NMeL][Gly(cBu)][Sar][Sar][NMeCha][Sar][hPhe(3-Cl-4-CF3)]P[Ac5c][NMeV][NMeD]-Piperidide; lactam N-11) | 2.8 | 100 to 500
